How the values were obtained:
surinam grass = experiment: Test B pre/postemergence surinam grass; type: in vivo, Brachiaria decumbens
Procedure, shortened: (§1)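 Herbicidal effect was estimated by eye on a ten-point control scale after plants spent twelve to sixteen days in a greenhouse following soil or foliar treatment. Foliar sprays targeted plants at one to four leaves; all doses were formulated in a non-phytotoxic solvent with surfactant.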

cocklebur = experiment: Test B pre/postemergence cocklebur; type: in vivo, Xanthium strumarium
Procedure, shortened: as §1

corn = experiment: Test B pre/postemergence corn; type: in vivo, Zea mays
Procedure, shortened: as §1

crabgrass = experiment: Test B pre/postemergence crabgrass; type: in vivo, Digitaria sanguinalis
Procedure, shortened: as §1

Alexandergrass = experiment: Test D Alexandergrass; type: in vivo, Brachiaria plantaginea; conditions: Preemergence, 0 to 100 scale
Procedure, shortened: (§2)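 Seeds were sown in greenhouse pots, one species per pot or compartment. Compounds were in a non-phytotoxic solvent mixture with surfactant; preemergence applications went on the sandy loam surface within one day of planting. Injury was rated visually after 14 to 21 days, 0 (none) to 100 (complete control).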

goosegrass = experiment: Test D goosegrass; type: in vivo, Eleusine indica; conditions: Preemergence, 0 to 100 scale
Procedure, shortened: as §2

Johnson grass = experiment: Test D Johnson grass; type: in vivo, Sorghum halepense; conditions: Preemergence, 0 to 100 scale
Procedure, shortened: as §2

sandbur = experiment: Test D sandbur; type: in vivo, Cenchrus echinatus; conditions: Preemergence, 0 to 100 scale
Procedure, shortened: as §2

tall mallow = experiment: Test D tall mallow; type: in vivo, Malva sylvestris; conditions: Preemergence, 0 to 100 scale
Procedure, shortened: as §2

winter wheat [1] = experiment: Test E winter wheat; type: in vivo, Triticum aestivum; conditions: Postemergence; for Plant response rating, Wheat (winter): 0 to 100 scale
Procedure, shortened: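 Each compound, carried in a non-phytotoxic solvent blend including surfactant, was applied (postemergence: over the top of young plants at 1- to 4-leaf stage). Plants stayed in the greenhouse about 21 to 28 days before visual comparison with untreated controls.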

blackgrass = experiment: Test E blackgrass; type: in vivo, Alopecurus myosuroides; conditions: Preemergence
green foxtail = experiment: Test E green foxtail; type: in vivo, Setaria viridis; conditions: Preemergence
Italian ryegrass = experiment: Test E Italian ryegrass; type: in vivo, Lolium multiflorum; conditions: Preemergence
winter wheat [2] = experiment: Test E winter wheat; type: in vivo, Triticum aestivum; conditions: Preemergence
wild oat = experiment: Test E wild oat; type: in vivo, Avena fatua; conditions: Preemergence
winter barley = experiment: Test E winter barley; type: in vivo, Hordeum vulgare; conditions: Preemergence
[3] = Preemergence, Rate 62 g/ha, scale of 0 to 10 where 0 is no effect and 10 is complete control
[4] = Preemergence, Rate 250 g/ha, scale of 0 to 10 where 0 is no effect and 10 is complete control
[5] = Preemergence, Rate 500 g/ha, scale of 0 to 10 where 0 is no effect and 10 is complete control
[6] = Rate 62 g/ha, Postemergence, scale of 0 to 10 where 0 is no effect and 10 is complete control
[7] = Rate 125 g/ha, Preemergence, scale of 0 to 10 where 0 is no effect and 10 is complete control
[8] = Rate 500 g/ha, Postemergence, scale 0 to 10, 0 no effect, 10 complete control
[9] = Rate 16 g/ha, 0 no injury, 100 complete control
[10] = Rate 32 g/ha, 0 no injury, 100 complete control
[11] = Rate 64 g/ha, 0 no injury, 100 complete control
[12] = Rate 125 g/ha, 0 no injury, 100 complete control
[13] = Rate 31 g/ha, 0 to 100 scale, 0 no effect, 100 complete control
[14] = Rate 62 g/ha, 0 to 100 scale, 0 no effect, 100 complete control
[15] = Rate 125 g/ha, 0 to 100 scale (0 no effect, 100 complete control)
[16] = Rate 500 g/ha, 0 to 100 scale where 0 is no effect and 100 is complete control

CC(C)N(C(=O)n1oc(=O)n(C2CC2)c1=O)c1ccc(F)cc1 [Compound 242]
B. signalgrass plant response rating (surinam grass; [3]): 6
B. signalgrass plant response rating (surinam grass; [4]): 9
Plant response rating, B. signalgrass (surinam grass; [5]): 10
B. signalgrass plant response rating (surinam grass; [6]): 1
B. signalgrass plant response rating (surinam grass; Rate 125 g/ha, Postemergence, scale 0 (no effect) to 10 (complete control)): 8
B. signalgrass plant response rating (surinam grass; [7]): 9
Plant response rating (0 to 10; 0 is no effect, 10 is complete control), B. signalgrass (surinam grass; Rate 250 g/ha, Postemergence): 8
B. signalgrass plant response rating (surinam grass; [8]): 9
Cocklebur plant response rating (cocklebur; [3]): 2
Cocklebur plant response rating (cocklebur; [4]): 2
Plant response rating, Cocklebur (cocklebur; [5]): 3
Cocklebur plant response rating (cocklebur; [6]): 5
Cocklebur plant response rating (cocklebur; Rate 125 g/ha, Postemergence, scale 0 to 10): 5
Plant response rating (0 to 10; 0 is no effect, 10 is complete control), Cocklebur (cocklebur; Rate 250 g/ha, Postemergence): 7
Cocklebur plant response rating (cocklebur; [8]): 7
Corn plant response rating (corn; [3]): 0
Corn plant response rating (corn; [4]): 6
Plant response rating, Corn (corn; [5]): 9
Corn plant response rating (corn; [6]): 0
Corn plant response rating (corn; [7]): 0
Plant response rating (0 to 10; 0 is no effect, 10 is complete control), Corn (corn; Rate 250 g/ha, Postemergence): 0
Corn plant response rating (corn; [8]): 6
Crabgrass plant response rating (crabgrass; [3]): 9
Crabgrass plant response rating (crabgrass; [4]): 10
Plant response rating, Crabgrass (crabgrass; [5]): 10
Crabgrass plant response rating (crabgrass; [6]): 8
Crabgrass plant response rating (crabgrass; [7]): 10
Plant response rating (0 to 10; 0 is no effect, 10 is complete control), Crabgrass (crabgrass; Rate 250 g/ha, Postemergence): 9
Crabgrass plant response rating (crabgrass; [8]): 9
Plant response rating, Alexandergrass (Alexandergrass; [9]): 65
Plant response rating, Alexandergrass (Alexandergrass; [10]): 85
Plant response rating, Alexandergrass (Alexandergrass; [11]): 100
Plant response rating, Alexandergrass (Alexandergrass; [12]): 98
Plant response rating, Alexandergrass (Alexandergrass; Rate 250 g/ha): 100
Plant response rating, Alexandergrass (Alexandergrass; Rate 500 g/ha): 100
Plant response rating, Goosegrass (goosegrass; [9]): 75
Plant response rating, Goosegrass (goosegrass; [10]): 85
Plant response rating, Goosegrass (goosegrass; [11]): 95
Plant response rating, Goosegrass (goosegrass; [12]): 100
Plant response rating, Goosegrass (goosegrass; Rate 250 g/ha): 100
Plant response rating, Goosegrass (goosegrass; Rate 500 g/ha): 100
Plant response rating, Johnsongrass (Johnson grass; [9]): 10
Plant response rating, Johnsongrass (Johnson grass; [10]): 40
Plant response rating, Johnsongrass (Johnson grass; [11]): 40
Plant response rating, Johnsongrass (Johnson grass; [12]): 85
Plant response rating, Johnsongrass (Johnson grass; Rate 250 g/ha): 98
Plant response rating, Johnsongrass (Johnson grass; Rate 500 g/ha): 100
Plant response rating, Sandbur (sandbur; [9]): 0
Plant response rating, Sandbur (sandbur; [10]): 0
Sandbur plant response rating (sandbur; [11]): 0
Sandbur plant response rating (sandbur; [12]): 90
Plant response rating, Sandbur (sandbur; Rate 250 g/ha): 100
Plant response rating, Sandbur (sandbur; Rate 500 g/ha): 100
Plant response rating, Tall Mallow (tall mallow; [9]): 0
Plant response rating, Tall Mallow (tall mallow; [10]): 0
Tall Mallow plant response rating (tall mallow; [11]): 0
Tall Mallow plant response rating (tall mallow; [12]): 0
Plant response rating, Tall Mallow (tall mallow; Rate 250 g/ha): 60
Plant response rating, Tall Mallow (tall mallow; Rate 500 g/ha): 85
Plant response rating, Wheat (winter) (winter wheat [1]; Rate 31 g/ha, 0 no effect, 100 complete control): 55
Plant response rating, Wheat (winter) (winter wheat [1]; Rate 62 g/ha): 65
Plant response rating, Wheat (winter) (winter wheat [1]; Rate 125 g/ha, 0 is no effect, 100 is complete control): 10
Wheat (winter) plant response rating (winter wheat [1]; Rate 250 g/ha, 0 to 100 scale where 0 is no effect and 100 is complete control): 10
Plant response rating, Wheat (winter) (winter wheat [1]; Rate 500 g/ha, 0 is no effect, 100 is complete control): 90
Plant response rating, Blackgrass (blackgrass; [13]): 55
Plant response rating, Blackgrass (blackgrass; [14]): 70
Plant response rating, Blackgrass (blackgrass; [15]): 95
Blackgrass plant response rating (0 to 100 scale) (blackgrass; Rate 250 g/ha): 100
Plant response rating, Blackgrass (blackgrass; [16]): 98
Plant response rating, Green foxtail (green foxtail; [13]): 50
Plant response rating, Green foxtail (green foxtail; [15]): 70
Green foxtail plant response rating (0 to 100 scale) (green foxtail; Rate 250 g/ha): 98
Plant response rating, Green foxtail (green foxtail; [16]): 100
Plant response rating, I. Ryegrass (Italian ryegrass; [13]): 65
Plant response rating, I. Ryegrass (Italian ryegrass; [14]): 70
Plant response rating, I. Ryegrass (Italian ryegrass; [15]): 95
I. Ryegrass plant response rating (0 to 100 scale) (Italian ryegrass; Rate 250 g/ha): 98
Plant response rating, I. Ryegrass (Italian ryegrass; [16]): 100
Plant response rating, Wheat (winter) (winter wheat [2]; [13]): 30
Plant response rating, Wheat (winter) (winter wheat [2]; [14]): 40
Plant response rating, Wheat (winter) (winter wheat [2]; [15]): 65
Wheat (winter) plant response rating (0 to 100 scale) (winter wheat [2]; Rate 250 g/ha): 55
Plant response rating, Wheat (winter) (winter wheat [2]; [16]): 95
Plant response rating, Wild oat (wild oat; [13]): 50
Plant response rating, Wild oat (wild oat; [14]): 60
Plant response rating, Wild oat (wild oat; [15]): 60
Wild oat plant response rating (0 to 100 scale) (wild oat; Rate 250 g/ha): 98
Plant response rating, Wild oat (wild oat; [16]): 100
Plant response rating, Barley (winter) (winter barley; [13]): 30
Plant response rating, Barley (winter) (winter barley; [14]): 30
Plant response rating, Barley (winter) (winter barley; [15]): 40
Barley (winter) plant response rating (0 to 100 scale) (winter barley; Rate 250 g/ha): 60
Plant response rating, Barley (winter) (winter barley; [16]): 85

From patent US6737383B1, “Herbicidal oxadiazolidines” (priority 1999, dated 2004)
